{P} = phosphate
Tests used:
[1] = test system: p53, E2F1 transcription factor; assay: Western analysis of p53 and E2F1 in Jurkat cells; assay type: cell-based, human; conditions: by 24 hours after addition
p53DD R2F fibroblasts = assay: SA-β-Gal staining, p53DD R2F fibroblasts; assay type: cell-based, human; conditions: 40 μM, 1 week
Method: FIG. 12a: Immunoblot analysis of p53DD and cdk4^R24C expression. Cells were collected for protein analysis by western blot using 30 μg total protein and probed for total p53 and cdk4. Lanes 1, 2, 3 and 4 contain protein samples from R2F, R2F (p53DD), R2F (cdk4^R24C) and R2F (p53DD/cdk4^R24C) fibroblasts, respective. β-actin was used as a loading control. FIG. 12b: Contribution of p53 and pRb pathways to T-oligo-induced SA-β-Gal activity. R2F fibroblasts and derived transductants were treated with diluent or 40 μM T-oligo for one week and then assayed for SA-β-Gal activity. FIG. 12c: Quantitative analysis of SA-β-Gal positive cells. Cells expressing SA-β-Gal activity were counted and presented as percentage of total cells in the cultures. Averages and standard deviations were calculated from 3 representative fields from each of 3 independent experiments.
R2F newborn dermal fibroblasts and derived p53DD, […] and p53DD/cdk4^R24C transductants (a generous gift from Dr. James G. Rheinwald of Harvard Medical School) lack a functional p53 pathway, pRb pathway, and both pathways respectively.
Cells were treated once with diluent alone, 40 μM T-oligo or 40 μM complementary oligo for 1 week without re-feeding. […]
Cells were treated with either diluent or 40 μM T-oligo for 1 week and then assessed for SA-β-Gal activity. […]

[2] = test system: HT-1080 human fibrosarcoma cells; assay: Clonogenic assay; assay type: cell-based; conditions: HT-1080, 40 μM for one week, then replated 2 weeks without treatment
Method: Cells were treated with diluent, 40 μM T-oligo or complementary oligo for one week, and then assayed. FIG. 15a: Appearance of stained dishes. FIG. 15b: Quantification of clonogenic capacity. Colonies of triplicate cultures were counted and plotted as percentage of diluent treated control.
Human fibrosarcoma cells were treated with diluent alone, 40 μM T-oligo or 40 μM complementary oligo for one week and were then trypsinized and counted. 300 cells were seeded into 60 mm culture dishes in triplicate and then incubated in complete medium for 2 weeks with medium changed twice per week. Subsequently, the cells were fixed for 5 min in 100% methanol. The methanol was then removed and the culture dishes were rinsed briefly with water. The colonies were stained for 10 min in 4% (w/v) methylene blue solution in PBS, washed once again with water, and then counted.
To determine the long-term effect of T-oligo treatment on cell growth, HT-1080 human fibrosarcoma cells were treated with either diluent alone, 40 μM T-oligo or 40 μM complementary control oligo for one week and then an equal number of cells were replated and medium was changed twice per week for 2 weeks with no further treatment, and then stained with methylene blue (FIG. 15a).

fibroblasts = assay: Degradation of the telomere 3′ overhang in fibroblasts; assay type: cell-based; conditions: up to 1 week (data not shown)
Saos-2 cells = assay: FACS analysis of Saos-2 cells; assay type: cell-based; conditions: Saos-2 (telomerase negative), 40 μM, 48 hours
Method: (§1) FIG. 18a: FACS profiles from one representative experiment of three with the percentage and standard deviations of cells in each phase of the cell cycle was calculated from triplicate cultures of each condition. FIG. 18b: Western blots with an antibody specific for phospho-p95/Nbs1. Lanes 1, 2 and 3 contained protein from cells treated with diluent, 11mer-1 or 11mer-2, respectively. Control cells (3 hours) were irradiated with 10 Gy of IR (+), or were sham irradiated (−).
(§2) Saos-2 cells are an osteosarcoma cell line that is reportedly telomerase negative and maintain telomeres by the ALT pathway. Saos-2 cell lines were treated with either diluent or 40 μM of the indicated oligonucleotide and cells were collected after 48 hours for FACS analysis. […] The results that the effect of the T-oligo in the telomerase negative cells is identical to the response in telomerase positive malignant cell lines.

p95/Nbs1 phosphorylation = assay: Western blot for phospho-p95/Nbs1 in Saos-2 cells; assay type: cell-based; conditions: 40 μM
Method: as §1, §2

Substance: pGTTAGGGTTAG (DNA, 5' {P}, backbone not given here; listed as Homo sapiens) [Oligonucleotide 11mer-1]
- level of the E2F1 transcription factor [1]: concomitant increase
- p53 level (Western analysis) [1]: increase
- SA-β-Gal positive cells (p53DD R2F fibroblasts): 45±4%
- clonogenic capacity [2]: 5.7±1.9 % of diluent treated control
- degradation of the telomere 3′ overhang (fibroblasts): does not result in degradation
- S phase arrest (Saos-2 cells): causes an S phase arrest
- phosphorylation of p95/Nbs1 (p95/Nbs1 phosphorylation): induced phosphorylation

— US20060269924A1, “Modulation of telomere-initiated cell signaling” (TRUSTEES OF BOSTON UNIVERSITY, priority 2003, published 2006)
